Measured values reported in BindingDB's records for patent US11912693 (Trevena, 2024).

What was measured:
[1] = target: T1, Sphingosine 1-phosphate receptor 1 (Homo sapiens, UniProt P21453); assay: Detecting Inhibition of cAMP Production
Method: Agonist-promoted G-protein responses were determined by measuring changes in intracellular cAMP using the HTRF cAMP HiRange kit (CisBio, Cat #: 62AM6PEJ) based on time-resolved fluorescence resonance energy transfer (TR-FRET) technology. […] Following a 30-minute incubation at 37 C. and 5% CO2 in a humidified CO2 and temperature-controlled incubator, the components of the cAMP HiRange kit were added as per the manufacturer's instructions. After an hour incubation at room temperature, plates were analyzed by a BMG PheraStar microplate reader.

[2] = target: T1, Sphingosine 1-phosphate receptor 1; assay: Beta-Arrestin2 Recruitment Assay
Method: Agonist-promoted β-arrestin2 recruitment to the sphingosine-1-phosphate 1 receptor was determined using the β-arrestin PathHunter ) Detection kit (DiscoverX Corporation, Cat #: 93-0001). […] In cells that stably express these fusion proteins, stimulation with a cognate agonist results in the interaction of 0-arrestin2 and the Prolink -tagged GPCR. This allows the complementation of the two β-galactosidase fragments and results in the formation of a functional enzyme with β-galactosidase activity. […] Following a 60 minute incubation at 37 C. and 5% CO2 in a humidified CO2 and temperature-controlled incubator, the components of the β-arrestin PathHunter Detection kit were added as per the manufacturer's instructions. After an hour incubation at room temperature, plates were analyzed by a BMG PheraStar microplate reader.

T1 sequence (P21453 whole entry): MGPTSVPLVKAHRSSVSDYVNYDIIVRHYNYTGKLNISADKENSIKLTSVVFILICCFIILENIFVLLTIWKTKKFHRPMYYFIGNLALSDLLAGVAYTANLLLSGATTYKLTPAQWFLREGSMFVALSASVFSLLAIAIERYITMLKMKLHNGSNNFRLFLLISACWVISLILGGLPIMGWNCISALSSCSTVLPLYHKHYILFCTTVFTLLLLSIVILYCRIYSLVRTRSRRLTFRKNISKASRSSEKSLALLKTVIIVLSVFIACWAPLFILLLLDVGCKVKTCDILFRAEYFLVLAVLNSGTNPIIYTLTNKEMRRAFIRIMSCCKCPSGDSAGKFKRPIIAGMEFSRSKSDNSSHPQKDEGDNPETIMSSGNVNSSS

| Structure (SMILES) | EC50 [1] [µM] | EC50 [2] [µM] |
| --- | --- | --- |
| CC(C)N1NNc2cc(-c3nc(-c4cn[nH]c4)no3)ccc21 [US11912693, Compound 646] | > 0.316 | > 10 |
| CC(C)n1nnc2cc(-c3nc(-c4ccccc4Cl)co3)ccc21 [US11912693, Compound 163] | < 0.316 | < 10 |
| Cc1cc(-c2noc(-c3ccc4c(c3)nnn4C3CCCC3)n2)ccn1 [US11912693, Compound 77] | > 0.316 | > 10 |
| Cc1cc(-c2noc(-c3ccc4c(c3)NNN4CC(C)(C)O)n2)c(C)o1 [US11912693, Compound 493] | > 0.316 | > 10 |

The next lines start with the values.

| EC50 [1] [µM] | EC50 [2] [µM] | Structure (SMILES) |
| --- | --- | --- |
| < 0.316 | < 10 | CC(C)N1NNc2cc(-c3nc(-c4sccc4Cl)co3)ccc21 [US11912693, Compound 463] |
| < 0.316 | < 10 | Cc1cc(-c2noc(-c3ccc4c(c3)NNN4C(C)C)n2)c(C)o1 [US11912693, Compound 490] |
| < 0.316 | < 10 | Cc1ccccc1-c1nc(-c2ccc3c(c2)NNN3CC(C)(C)O)no1 [US11912693, Compound 593] |
| < 0.316 | < 10 | CC(C)N1NNc2cc(-c3nc(-c4cccnc4Cl)no3)ccc21 [US11912693, Compound 499] |
| < 0.316 | < 10 | Cc1occc1-c1noc(-c2ccc3c(c2)NNN3C(C)C)n1 [US11912693, Compound 491] |
